Results taken from patent publication US20080193549A1, “Hoki Fish Liver Oil, Fractions Thereof And Therapeutic Uses” (Otago Innovation Limited, priority 2004, published 2008).

Experiments:
activated neutrophils = test: neutrophil activation: superoxide production (WST-1); type: cell-based, rat; details: 100 μg/ml, positive control
Method: The in vitro anti-inflammatory screening assay used in this investigation involved determining the effect of a test material on activated neutrophils. The production of superoxide was measured. Neutrophils were prepared from fresh rat blood and diluted with phosphate-buffered saline (PBS) and adjusted to a concentration of 10^7 cells per ml. The purity of the preparation was 95% or higher. The test sample was pre-incubated with a cell suspension at 37° C. for 15 minutes in wells of a 96 well culture plate. Then catalase and WST-1 dye reagent were added to each incubate (including controls). Each was then activated with phorbol myristate acetate (100 ng/ml). After incubation for 1 hr at 37° C. the reaction was stopped and the level of superoxide produced from oxidation of the dye WST by the superoxide in each well of the plate determined calorimetrically at 450 nm. As a positive control, triplicate wells with aspirin (100 μg/ml) were assayed. Each sample was assessed at three different concentrations.

rat monocytes = test: macrophage assay: conversion of monocytes to macrophages (nitric oxide, Griess); type: cell-based
Method: A diluent composed of RPMI culture media containing 10% foetal calf serum (FCS) was prepared. A density gradient barrier was prepared by mixing a working solution [Optiprep: diluent, 2:1, v/v] with further diluent in a ratio of 2.3 to 5.0. The density of 1.076 g/ml is required for isolating rat monocytes. Freshly isolated rat blood was cooled to 4° C. 5 ml of the density gradient was layered over 5 ml of the blood and 5 ml of diluent was then layered gently on top. After centrifuging at 700 g for 30 min at 4° C., the monocytes were collected from the top of the 1.076 g/ml layer and diluted with 2 volumes of diluent and the pellet was gently resuspended in Hanks Balanced Salt Solution (HBSS). The cell concentration and the relative purity were determined. 500 μl Aliquots of cell suspension were used. […] 10 μl of LPS (5 mg/ml) was then added to all tubes, except the control, to give a final concentration of LPS of approximately 20 μg/ml. The cells were incubated overnight at 37° C. and then centrifuged at 12,000 g (4° C.) for 5 min. The supernatants were collected and aliquots of these were then assayed in duplicate for the concentration of nitric oxide (NO) by the Griess reagent procedure using a kit (Sigma, St Louis, USA).

| Compound | Absorbance units (superoxide production) (activated neutrophils) [Absorbance units] | inhibition at 100 µg/mL (activated neutrophils; Rattus norvegicus, Neutrophil) [%] | % Inhibition of conversion of monocytes to macrophages (NO production) (rat monocytes; 2.5 μM) [%] | Absorbance units (nitric oxide production) (rat monocytes; 2.5 μM) [Absorbance units] | % Inhibition of conversion of monocytes to macrophages (NO production) (rat monocytes; 5 μM) [%] | Absorbance units (nitric oxide production) (rat monocytes; 5 μM) [Absorbance units] |
| --- | --- | --- | --- | --- | --- | --- |
| CC(=O)Oc1ccccc1C(=O)O [Aspirin, aspirin] | 0.3095 | 46.9 | – | – | – | – |
| CNC(=N)NCCC[C@H](N)C(=O)O [L-NMMA] | – | – | 44.94 | 1.568 | 75.07 | 0.710 |
